Read-outs that look alike come from different tables or passages of the source.
Key:
[1] = absence of a second agent, Table 6B

## 2-benzyl-3- (methylamino)pro- panoyl polymyxin B nonapeptide [Example D57]
P. aeruginosa; sole activity, Table 6C
  MIC, P. aeruginosa ATCC 27853: 0.5 micrograms/mL
  MIC, P. aeruginosa CCUG 59347: 1 micrograms/mL
K. pneumoniae; sole activity, Table 6C
  MIC, K. pneumoniae ATCC 4352: 0.25 micrograms/mL
  MIC, K. pneumoniae ATCC BAA-2146: 0.25 micrograms/mL
E. coli; sole activity, Table 6C
  MIC, E. coli ATCC 25922: 0.25 micrograms/mL
  MIC, E. coli NCTC 13441: 0.5 micrograms/mL
A. baumannii; sole activity, Table 6C
  MIC, A. baumannii ATCC BAA-747: 4 micrograms/mL
  MIC, A. baumannii NCTC 13424: 2 micrograms/mL

## 4- (isobutylamino)pi- peridine-3- carbonyl L-Thr-L- Dap-polymyxin B heptapeptide [Example D74]
P. aeruginosa; sole activity, Table 6C
  MIC, P. aeruginosa ATCC 27853: 0.25 micrograms/mL
  MIC, P. aeruginosa CCUG 59347: 0.5 micrograms/mL
K. pneumoniae; sole activity, Table 6C
  MIC, K. pneumoniae ATCC 4352: 0.125 micrograms/mL
  MIC, K. pneumoniae ATCC BAA-2146: 0.5 micrograms/mL
E. coli; sole activity, Table 6C
  MIC, E. coli ATCC 25922: 0.25 micrograms/mL
  MIC, E. coli NCTC 13441: 0.25 micrograms/mL
A. baumannii; sole activity, Table 6C
  MIC, A. baumannii ATCC BAA-747: 2 micrograms/mL
  MIC, A. baumannii NCTC 13424: 2 micrograms/mL

## 4-Amino-2-benzyl butanoylpolymyxin B nonapeptide [Example D3]
P. aeruginosa; [1]
  MIC, P. aeruginosa ATCC 27853: 0.5 micrograms/mL
  MIC, P. aeruginosa CCUG 59347: 1 micrograms/mL
K. pneumoniae; [1]
  MIC, K. pneumoniae ATCC 4352: 1 micrograms/mL
  MIC, K. pneumoniae ATCC BAA-2146: 2 micrograms/mL
E. coli; [1]
  MIC, E. coli ATCC 25922: 0.25 micrograms/mL
  MIC, E. coli NCTC 13441: 0.5 micrograms/mL
A. baumannii; [1]
  MIC, A. baumannii ATCC BAA-747: >8 micrograms/mL
  MIC, A. baumannii NCTC 13424: >8 micrograms/mL

## 4-octylpiperidine-3- carbonyl polymyxin B nonapeptide [Example D34]
P. aeruginosa; [1]
  MIC, P. aeruginosa ATCC 27853: 1 micrograms/mL
  MIC, P. aeruginosa CCUG 59347: 2 micrograms/mL
K. pneumoniae; [1]
  MIC, K. pneumoniae ATCC 4352: 2 micrograms/mL
  MIC, K. pneumoniae ATCC BAA-2146: 2 micrograms/mL
E. coli; [1]
  MIC, E. coli ATCC 25922: 1 micrograms/mL
  MIC, E. coli NCTC 13441: 1 micrograms/mL
A. baumannii; [1]
  MIC, A. baumannii ATCC BAA-747: 2 micrograms/mL
  MIC, A. baumannii NCTC 13424: 2 micrograms/mL

## 5- (isobutylamino)pi- peridine-3- carbonyl Polymyxin B nonapeptide [Example D62]
P. aeruginosa; sole activity, Table 6C
  MIC, P. aeruginosa ATCC 27853: 1 micrograms/mL
  MIC, P. aeruginosa CCUG 59347: 2 micrograms/mL
K. pneumoniae; sole activity, Table 6C
  MIC, K. pneumoniae ATCC 4352: 0.5 micrograms/mL
  MIC, K. pneumoniae ATCC BAA-2146: 1 micrograms/mL
E. coli; sole activity, Table 6C
  MIC, E. coli ATCC 25922: 0.5 micrograms/mL
  MIC, E. coli NCTC 13441: 1 micrograms/mL
A. baumannii; sole activity, Table 6C
  MIC, A. baumannii ATCC BAA-747: 4 micrograms/mL
  MIC, A. baumannii NCTC 13424: 4 micrograms/mL

## 5-((2- methylpropyl)sulfon- amido)piperidine- 3-carbonyl- polymyxin B nonapeptide [Example D73]
P. aeruginosa; sole activity, Table 6C
  MIC, P. aeruginosa ATCC 27853: 1 micrograms/mL
  MIC, P. aeruginosa CCUG 59347: 2 micrograms/mL
K. pneumoniae; sole activity, Table 6C
  MIC, K. pneumoniae ATCC 4352: 0.5 micrograms/mL
  MIC, K. pneumoniae ATCC BAA-2146: 0.5 micrograms/mL
E. coli; sole activity, Table 6C
  MIC, E. coli ATCC 25922: 0.25 micrograms/mL
  MIC, E. coli NCTC 13441: 0.5 micrograms/mL
A. baumannii; sole activity, Table 6C
  MIC, A. baumannii ATCC BAA-747: 4 micrograms/mL
  MIC, A. baumannii NCTC 13424: 2 micrograms/mL

## 6- isobutylpiperazine- 2-carbonyl L- Thr-L-Dap- polymyxin B heptapeptide [Example D80]
P. aeruginosa; sole activity, Table 6C
  MIC, P. aeruginosa ATCC 27853: 0.5 micrograms/mL
  MIC, P. aeruginosa CCUG 59347: 0.5 micrograms/mL
K. pneumoniae; sole activity, Table 6C
  MIC, K. pneumoniae ATCC 4352: 0.25 micrograms/mL
E. coli; sole activity, Table 6C
  MIC, E. coli ATCC 25922: 0.5 micrograms/mL
A. baumannii; sole activity, Table 6C
  MIC, A. baumannii ATCC BAA-747: 0.5 micrograms/mL
  MIC, A. baumannii NCTC 13424: 0.5 micrograms/mL

## (S)-1-((2,3- dihydrobenzo[b][1,4] dioxin-6- yl)methyl)piperazine- 2-carbonyl polymyxin B nonapeptide [Example D58]
P. aeruginosa; sole activity, Table 6C
  MIC, P. aeruginosa ATCC 27853: 0.5 micrograms/mL
  MIC, P. aeruginosa CCUG 59347: 1 micrograms/mL
K. pneumoniae; sole activity, Table 6C
  MIC, K. pneumoniae ATCC 4352: 0.25 micrograms/mL
  MIC, K. pneumoniae ATCC BAA-2146: 0.25 micrograms/mL
E. coli; sole activity, Table 6C
  MIC, E. coli ATCC 25922: 0.25 micrograms/mL
  MIC, E. coli NCTC 13441: 0.25 micrograms/mL
A. baumannii; sole activity, Table 6C
  MIC, A. baumannii ATCC BAA-747: 1 micrograms/mL
  MIC, A. baumannii NCTC 13424: 0.5 micrograms/mL

## (S)-1-((6-oxo-1- phenyl-1,6- dihydropyridin-3- yl)methyl)piperazine- 2-carbonyl Polymyxin B nonapeptide [Example D60]
P. aeruginosa; sole activity, Table 6C
  MIC, P. aeruginosa ATCC 27853: 1 micrograms/mL
  MIC, P. aeruginosa CCUG 59347: 2 micrograms/mL
K. pneumoniae; sole activity, Table 6C
  MIC, K. pneumoniae ATCC 4352: 0.25 micrograms/mL
  MIC, K. pneumoniae ATCC BAA-2146: 0.5 micrograms/mL
E. coli; sole activity, Table 6C
  MIC, E. coli ATCC 25922: 0.25 micrograms/mL
  MIC, E. coli NCTC 13441: 0.5 micrograms/mL
A. baumannii; sole activity, Table 6C
  MIC, A. baumannii ATCC BAA-747: 4 micrograms/mL
  MIC, A. baumannii NCTC 13424: 2 micrograms/mL

## (S)-3-amino-2- (benzylamino)pro- panoyl Polymyxin B nonapeptide [Example D59]
P. aeruginosa; sole activity, Table 6C
  MIC, P. aeruginosa ATCC 27853: 0.5 micrograms/mL
  MIC, P. aeruginosa CCUG 59347: 1 micrograms/mL
K. pneumoniae; sole activity, Table 6C
  MIC, K. pneumoniae ATCC 4352: 0.5 micrograms/mL
  MIC, K. pneumoniae ATCC BAA-2146: 0.5 micrograms/mL
E. coli; sole activity, Table 6C
  MIC, E. coli ATCC 25922: 0.5 micrograms/mL
  MIC, E. coli NCTC 13441: 0.5 micrograms/mL
A. baumannii; sole activity, Table 6C
  MIC, A. baumannii ATCC BAA-747: 2 micrograms/mL
  MIC, A. baumannii NCTC 13424: 1 micrograms/mL

## (S)-3-amino-2- (benzyloxy)propan- oyl Polymyxin B nonapeptide [Example D61]
P. aeruginosa; sole activity, Table 6C
  MIC, P. aeruginosa ATCC 27853: 0.5 micrograms/mL
  MIC, P. aeruginosa CCUG 59347: 1 micrograms/mL
K. pneumoniae; sole activity, Table 6C
  MIC, K. pneumoniae ATCC 4352: 0.25 micrograms/mL
  MIC, K. pneumoniae ATCC BAA-2146: 0.25 micrograms/mL
E. coli; sole activity, Table 6C
  MIC, E. coli ATCC 25922: 0.5 micrograms/mL
  MIC, E. coli NCTC 13441: 0.5 micrograms/mL
A. baumannii; sole activity, Table 6C
  MIC, A. baumannii ATCC BAA-747: 2 micrograms/mL
  MIC, A. baumannii NCTC 13424: 1 micrograms/mL

## (S)-4-amino-2- (benzyloxy)butan- oyl Polymyxin B nonapeptide [Example D54]
P. aeruginosa; sole activity, Table 6C
  MIC, P. aeruginosa ATCC 27853: 0.5 micrograms/mL
  MIC, P. aeruginosa CCUG 59347: 1 micrograms/mL
K. pneumoniae; sole activity, Table 6C
  MIC, K. pneumoniae ATCC 4352: 0.125 micrograms/mL
  MIC, K. pneumoniae ATCC BAA-2146: 0.25 micrograms/mL
E. coli; sole activity, Table 6C
  MIC, E. coli ATCC 25922: 0.25 micrograms/mL
  MIC, E. coli NCTC 13441: 0.5 micrograms/mL
A. baumannii; sole activity, Table 6C
  MIC, A. baumannii ATCC BAA-747: 1 micrograms/mL
  MIC, A. baumannii NCTC 13424: 4 micrograms/mL

Source: US20210221848A1, “POLYMYXIN DERIVATIVES AND THEIR USE IN COMBINATION THERAPY TOGETHER WITH DIFFERENT ANTIBIOTICS” (priority 2014, published 2021)
